Laboratory results taken from ChEMBL document CHEMBL1201862, “PubChem BioAssay data set” (2004).
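Cultured in 96-well plates, cells were exposed to test compound for 48 hours across five concentrations. Abbreviation: GI50, concentration required for 50% inhibition of growth.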 Activity calls are given as the source filed them. No stated cut-off is given here; in the data, active = GI50 up to about 1.1 µM and inactive = higher.

What was measured:
Test in all cases: NCI tumour cell line growth inhibition, 48 h
[1] = tested on: NCI-H23
[2] = tested on: HOP-62
[3] = tested on: UACC-257
[4] = tested on: OVCAR-8
[5] = tested on: OVCAR-4
[6] = tested on: UACC-62
[7] = tested on: SK-MEL-28
[8] = tested on: SW-620
[9] = tested on: T47D
[10] = tested on: SNB-75
[11] = tested on: RPMI-8226
[12] = tested on: MOLT-4
[13] = tested on: NCI-H226
[14] = tested on: NCI-H522
[15] = tested on: LOX IMVI
[16] = tested on: NCI/ADR-RES
[17] = tested on: MDA-MB-231
[18] = tested on: MDA-MB-435
[19] = tested on: A549
[20] = tested on: A498

Measured: GI50

c1ccc(-c2cc(-c3ccncc3)cc(-c3ccncc3)n2)cc1
inactive: [1] > 100 µM | [2] 33.3 µM | [3] > 100 µM | [4] > 100 µM | [5] > 100 µM | [6] > 100 µM | [7] > 100 µM | [8] > 100 µM | [9] > 100 µM | [10] 29 µM | [11] > 100 µM | [12] > 100 µM | [13] > 100 µM | [14] 18.2 µM | [15] > 100 µM | [16] > 100 µM | [17] > 100 µM | [18] > 100 µM | [19] > 100 µM

CNC(=O)OC(C)CN1c2ccccc2Sc2ccccc21 (centres undefined)
inactive: [1] > 100 µM | [2] > 100 µM | [3] > 100 µM | [4] > 100 µM | [5] 74.5 µM | [6] > 100 µM | [7] > 100 µM | [8] > 100 µM | [9] > 100 µM | [20] > 100 µM | [12] 19.1 µM | [13] > 100 µM | [14] > 100 µM | [15] 75.2 µM | [16] 76 µM | [17] > 100 µM | [18] 80.2 µM | [19] 86.3 µM

CN(C)/N=N/c1[nH]cnc1C(N)=O [DACARBAZINE]
inactive: [1] 93.8 µM | [2] 24.5 µM | [3] 49.8 µM | [4] 44.5 µM | [5] 34.8 µM | [6] 35.3 µM | [7] 86.5 µM | [8] 55.1 µM | [9] > 92.3 µM | [10] 35.7 µM | [11] 19.1 µM | [12] 20.7 µM | [13] 75.2 µM | [14] 67.1 µM | [15] 11.7 µM | [16] 66.4 µM | [17] 51.3 µM | [18] 84.5 µM | [19] 96.2 µM

OC(COC(c1ccccc1)(c1ccccc1)c1ccccc1)C(O)CC1SCCS1 (centres undefined)
inactive: [1] 17.9 µM | [2] 12 µM | [3] 27 µM | [4] 19.3 µM | [6] 17.1 µM | [7] 21.5 µM | [8] 29 µM | [9] 14.1 µM | [11] 5.22 µM | [20] 13.9 µM | [12] 8.91 µM | [13] 14.9 µM | [15] 13.5 µM | [16] 16.3 µM | [17] 16.2 µM | [18] 26.2 µM

COc1cc(C2S/C(=C/c3ccccc3)C(=O)N2c2cc(Cl)ccc2Cl)cc(OC)c1OC (centres undefined)
inactive: [1] 49.4 µM | [2] 46.7 µM | [3] > 100 µM | [4] 36.3 µM | [6] 31.8 µM | [7] 64.9 µM | [8] 36 µM | [9] 53.7 µM | [11] 36.2 µM | [20] > 100 µM | [12] 34.8 µM | [13] 40.4 µM | [14] 21.9 µM | [15] 15.8 µM | [16] 28.2 µM | [17] 40.3 µM | [18] 34.1 µM | [19] 91.8 µM

O=[N+]([O-])c1ccc([I+]c2ccccc2)cc1
inactive: [1] 2.33 µM | [2] 11.6 µM | [3] 4.29 µM | [4] 5.41 µM | [5] 4.33 µM | [6] 2.96 µM | [7] 3.6 µM | [8] 4.49 µM | [9] 6.52 µM | [11] 11.2 µM | [20] 2.05 µM | [12] 2.25 µM | [13] 9.08 µM | [14] 1.92 µM | [16] 8.3 µM | [17] 3.95 µM | [18] 8.2 µM | [19] 6.64 µM

COc1cc(C2SCC(=O)N2c2ccc(-n3c(-c4ccccc4)nc4ccccc4c3=O)cc2)cc(OC)c1OC (centres undefined)
inactive: [1] > 100 µM | [2] > 100 µM | [3] > 100 µM | [4] > 100 µM | [5] > 100 µM | [6] 41.2 µM | [7] > 100 µM | [8] > 100 µM | [9] 27.9 µM | [11] > 100 µM | [20] > 100 µM | [12] 20.1 µM | [14] > 100 µM | [15] > 100 µM | [16] > 100 µM | [17] > 100 µM | [18] > 100 µM | [19] > 100 µM

COC(=O)c1ccccc1C1=C([N+](=O)[O-])C(c2ccccc2)C(C#N)=C(N)O1 (centres undefined)
inactive: [1] 23.4 µM | [2] > 100 µM | [3] > 100 µM | [4] 32.1 µM | [6] 30.7 µM | [7] > 100 µM | [8] 35.9 µM | [9] 37.7 µM | [10] 96.2 µM | [11] 34.5 µM | [12] 35 µM | [13] > 100 µM | [14] 15 µM | [15] > 100 µM | [16] > 100 µM | [17] > 100 µM | [18] 72.8 µM | [19] > 100 µM
